# Data published in PubChem BioAssay (NCI).
#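 Exposure lasted 48 hours, with cells grown in 96-well plates and compounds tested at five concentrations. GI50: concentration for 50% inhibition of growth. At the TGI there is no net growth.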
# Assays:
# Experiment in all cases: DTP human tumour cell line panel, 48 h
# 786-0 renal = tested on: 786-0 renal
# A498 renal = tested on: A498 renal
# A549 NSCLC = tested on: A549 NSCLC
# ACHN renal = tested on: ACHN renal
# BT-549 breast = tested on: BT-549 breast
# CAKI-1 renal = tested on: CAKI-1 renal
# CCRF-CEM leukemia = tested on: CCRF-CEM leukemia
# COLO 205 colon = tested on: COLO 205 colon
# DU-145 prostate = tested on: DU-145 prostate
# EKVX NSCLC = tested on: EKVX NSCLC
# HCC-2998 colon = tested on: HCC-2998 colon
# HCT-15 colon = tested on: HCT-15 colon
# HL-60(TB) leukemia = tested on: HL-60(TB) leukemia
# HOP-62 NSCLC = tested on: HOP-62 NSCLC
# HOP-92 NSCLC = tested on: HOP-92 NSCLC
# HS 578T breast = tested on: HS 578T breast
# HT29 colon = tested on: HT29 colon
# IGROV1 ovarian = tested on: IGROV1 ovarian
# KM12 colon = tested on: KM12 colon
# LOX IMVI melanoma = tested on: LOX IMVI melanoma
# MALME-3M melanoma = tested on: MALME-3M melanoma
# MCF7 breast = tested on: MCF7 breast
# MDA-MB-231 breast = tested on: MDA-MB-231 breast
# MDA-MB-435 = tested on: MDA-MB-435
# MOLT-4 leukemia = tested on: MOLT-4 leukemia
# NCI-H226 lung = tested on: NCI-H226 lung
# NCI-H23 lung = tested on: NCI-H23 lung
# NCI-H460 lung = tested on: NCI-H460 lung
# NCI-H522 lung = tested on: NCI-H522 lung
# NCI/ADR-RES ovarian = tested on: NCI/ADR-RES ovarian
# OVCAR-3 ovarian = tested on: OVCAR-3 ovarian
# OVCAR-4 ovarian = tested on: OVCAR-4 ovarian
# OVCAR-5 ovarian = tested on: OVCAR-5 ovarian
# OVCAR-8 ovarian = tested on: OVCAR-8 ovarian
# PC-3 prostate = tested on: PC-3 prostate
# RPMI-8226 leukemia = tested on: RPMI-8226 leukemia
# RXF 393 renal = tested on: RXF 393 renal
# SF-268 CNS = tested on: SF-268 CNS
# SF-295 CNS = tested on: SF-295 CNS
# SF-539 CNS = tested on: SF-539 CNS
# SK-MEL-2 melanoma = tested on: SK-MEL-2 melanoma
# SK-MEL-28 melanoma = tested on: SK-MEL-28 melanoma
# SK-MEL-5 melanoma = tested on: SK-MEL-5 melanoma
# SK-OV-3 ovarian = tested on: SK-OV-3 ovarian
# SN12C renal = tested on: SN12C renal
# SNB-19 CNS = tested on: SNB-19 CNS
# SNB-75 CNS = tested on: SNB-75 CNS
# SW-620 colon = tested on: SW-620 colon
# T-47D breast = tested on: T-47D breast
# TK-10 renal = tested on: TK-10 renal
# U251 CNS = tested on: U251 CNS
# UACC-257 melanoma = tested on: UACC-257 melanoma
# UACC-62 melanoma = tested on: UACC-62 melanoma
# UO-31 renal = tested on: UO-31 renal
smiles,measurement,setting,value
CCCN1C/C(=C\c2ccc(O)c(OC)c2)C(=O)/C(=C/c2ccc(O)c(OC)c2)C1,GI50,786-0 renal,> 100 µM
same,TGI,786-0 renal,> 100 µM
same,GI50,A498 renal,> 100 µM
same,TGI,A498 renal,> 100 µM
same,GI50,A549 NSCLC,> 100 µM
same,TGI,A549 NSCLC,> 100 µM
same,GI50,ACHN renal,> 100 µM
same,TGI,ACHN renal,> 100 µM
same,GI50,BT-549 breast,> 100 µM
same,TGI,BT-549 breast,> 100 µM
same,GI50,CAKI-1 renal,> 100 µM
same,TGI,CAKI-1 renal,> 100 µM
same,GI50,CCRF-CEM leukemia,> 100 µM
same,TGI,CCRF-CEM leukemia,> 100 µM
same,GI50,COLO 205 colon,> 100 µM
same,TGI,COLO 205 colon,> 100 µM
same,GI50,DU-145 prostate,> 100 µM
same,TGI,DU-145 prostate,> 100 µM
same,GI50,EKVX NSCLC,> 100 µM
same,TGI,EKVX NSCLC,> 100 µM
same,GI50,HCC-2998 colon,> 100 µM
same,TGI,HCC-2998 colon,> 100 µM
same,GI50,HCT-15 colon,> 100 µM
same,TGI,HCT-15 colon,> 100 µM
same,GI50,HL-60(TB) leukemia,> 100 µM
same,TGI,HL-60(TB) leukemia,> 100 µM
same,GI50,HOP-62 NSCLC,> 100 µM
same,TGI,HOP-62 NSCLC,> 100 µM
same,GI50,HOP-92 NSCLC,> 100 µM
same,TGI,HOP-92 NSCLC,> 100 µM
same,GI50,HS 578T breast,> 100 µM
same,TGI,HS 578T breast,> 100 µM
same,GI50,HT29 colon,> 100 µM
same,TGI,HT29 colon,> 100 µM
same,GI50,IGROV1 ovarian,> 100 µM
same,TGI,IGROV1 ovarian,> 100 µM
same,GI50,KM12 colon,> 100 µM
same,TGI,KM12 colon,> 100 µM
same,GI50,LOX IMVI melanoma,> 100 µM
same,TGI,LOX IMVI melanoma,> 100 µM
same,GI50,MALME-3M melanoma,> 100 µM
same,TGI,MALME-3M melanoma,> 100 µM
same,GI50,MCF7 breast,> 100 µM
same,TGI,MCF7 breast,> 100 µM
same,GI50,MDA-MB-231 breast,> 100 µM
same,TGI,MDA-MB-231 breast,> 100 µM
same,GI50,MDA-MB-435,> 100 µM
same,TGI,MDA-MB-435,> 100 µM
same,GI50,MOLT-4 leukemia,> 100 µM
same,TGI,MOLT-4 leukemia,> 100 µM
same,GI50,NCI-H226 lung,> 100 µM
same,TGI,NCI-H226 lung,> 100 µM
same,GI50,NCI-H23 lung,> 100 µM
same,TGI,NCI-H23 lung,> 100 µM
same,GI50,NCI-H460 lung,> 100 µM
same,TGI,NCI-H460 lung,> 100 µM
same,GI50,NCI-H522 lung,> 100 µM
same,TGI,NCI-H522 lung,> 100 µM
same,GI50,NCI/ADR-RES ovarian,> 100 µM
same,TGI,NCI/ADR-RES ovarian,> 100 µM
same,GI50,OVCAR-3 ovarian,> 100 µM
same,TGI,OVCAR-3 ovarian,> 100 µM
same,GI50,OVCAR-4 ovarian,> 100 µM
same,TGI,OVCAR-4 ovarian,> 100 µM
same,GI50,OVCAR-5 ovarian,> 100 µM
same,TGI,OVCAR-5 ovarian,> 100 µM
same,GI50,OVCAR-8 ovarian,> 100 µM
same,TGI,OVCAR-8 ovarian,> 100 µM
same,GI50,PC-3 prostate,> 100 µM
same,TGI,PC-3 prostate,> 100 µM
same,GI50,RPMI-8226 leukemia,> 100 µM
same,TGI,RPMI-8226 leukemia,> 100 µM
same,GI50,RXF 393 renal,> 100 µM
same,TGI,RXF 393 renal,> 100 µM
same,GI50,SF-268 CNS,> 100 µM
same,TGI,SF-268 CNS,> 100 µM
same,GI50,SF-295 CNS,> 100 µM
same,TGI,SF-295 CNS,> 100 µM
same,GI50,SF-539 CNS,> 100 µM
same,TGI,SF-539 CNS,> 100 µM
same,GI50,SK-MEL-2 melanoma,> 100 µM
same,TGI,SK-MEL-2 melanoma,> 100 µM
same,GI50,SK-MEL-28 melanoma,> 100 µM
same,TGI,SK-MEL-28 melanoma,> 100 µM
same,GI50,SK-MEL-5 melanoma,> 100 µM
same,TGI,SK-MEL-5 melanoma,> 100 µM
same,GI50,SK-OV-3 ovarian,> 100 µM
same,TGI,SK-OV-3 ovarian,> 100 µM
same,GI50,SN12C renal,> 100 µM
same,TGI,SN12C renal,> 100 µM
same,GI50,SNB-19 CNS,> 100 µM
same,TGI,SNB-19 CNS,> 100 µM
same,GI50,SNB-75 CNS,> 100 µM
same,TGI,SNB-75 CNS,> 100 µM
same,GI50,SW-620 colon,> 100 µM
same,TGI,SW-620 colon,> 100 µM
same,GI50,T-47D breast,> 100 µM
same,TGI,T-47D breast,> 100 µM
same,GI50,TK-10 renal,> 100 µM
same,TGI,TK-10 renal,> 100 µM
same,GI50,U251 CNS,> 100 µM
same,TGI,U251 CNS,> 100 µM
same,GI50,UACC-257 melanoma,> 100 µM
same,TGI,UACC-257 melanoma,> 100 µM
same,GI50,UACC-62 melanoma,> 100 µM
same,TGI,UACC-62 melanoma,> 100 µM
same,GI50,UO-31 renal,> 100 µM
same,TGI,UO-31 renal,> 100 µM
